5 compounds from article PMC12586182 (Frontiers in Oncology, 2025) can be followed below.

Assay in all cases: Kinase panel profiling at 1 µmol/L (mobility shift assay, Carna)
Assay type in all cases: biochemical
What all share (settings): 1 µmol/L of BTK inhibitor

The target of assay [1] is T1, AurC (Homo sapiens, UniProt Q9UQB9).
T1 construct: purchased Carna Biosciences
T1 sequence (Q9UQB9 1-309): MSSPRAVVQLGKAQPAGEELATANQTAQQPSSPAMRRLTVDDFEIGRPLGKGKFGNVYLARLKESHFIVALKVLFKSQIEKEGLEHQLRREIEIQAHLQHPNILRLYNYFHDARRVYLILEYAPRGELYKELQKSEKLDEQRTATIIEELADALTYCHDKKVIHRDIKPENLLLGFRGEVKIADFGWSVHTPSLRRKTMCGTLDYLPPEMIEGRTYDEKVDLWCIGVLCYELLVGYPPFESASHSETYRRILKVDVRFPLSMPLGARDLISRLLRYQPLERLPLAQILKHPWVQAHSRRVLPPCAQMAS

Assay [2] has as its target T2, CaMK2γ (Homo sapiens, UniProt Q13555).
T2 construct: purchased Carna Biosciences

The target of assay [3] is T3, CHK2 (Homo sapiens, UniProt O96017).
T3 construct: purchased Carna Biosciences
T3 sequence (O96017 whole entry): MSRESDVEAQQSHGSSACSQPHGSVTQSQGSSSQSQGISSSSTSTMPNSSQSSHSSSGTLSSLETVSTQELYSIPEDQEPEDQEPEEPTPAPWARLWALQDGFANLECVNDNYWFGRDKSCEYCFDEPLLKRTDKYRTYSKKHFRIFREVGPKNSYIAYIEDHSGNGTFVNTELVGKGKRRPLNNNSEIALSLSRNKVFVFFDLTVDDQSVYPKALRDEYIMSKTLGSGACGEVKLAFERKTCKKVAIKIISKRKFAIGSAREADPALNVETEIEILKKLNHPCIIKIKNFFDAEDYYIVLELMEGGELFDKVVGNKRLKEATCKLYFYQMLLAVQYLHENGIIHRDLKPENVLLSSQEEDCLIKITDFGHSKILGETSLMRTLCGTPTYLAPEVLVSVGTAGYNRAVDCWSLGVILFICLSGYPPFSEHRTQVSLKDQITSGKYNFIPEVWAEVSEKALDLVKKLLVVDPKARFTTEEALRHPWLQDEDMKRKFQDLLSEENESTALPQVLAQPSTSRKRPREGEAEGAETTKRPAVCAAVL

Assay [4] concerns the target T4, NEK4 (Homo sapiens, UniProt P51957).
T4 construct: purchased Carna Biosciences

Assay [5] deals with T5, MST1 (Homo sapiens, UniProt Q13043).
T5 construct: purchased Carna Biosciences
T5 sequence (Q13043 1-487): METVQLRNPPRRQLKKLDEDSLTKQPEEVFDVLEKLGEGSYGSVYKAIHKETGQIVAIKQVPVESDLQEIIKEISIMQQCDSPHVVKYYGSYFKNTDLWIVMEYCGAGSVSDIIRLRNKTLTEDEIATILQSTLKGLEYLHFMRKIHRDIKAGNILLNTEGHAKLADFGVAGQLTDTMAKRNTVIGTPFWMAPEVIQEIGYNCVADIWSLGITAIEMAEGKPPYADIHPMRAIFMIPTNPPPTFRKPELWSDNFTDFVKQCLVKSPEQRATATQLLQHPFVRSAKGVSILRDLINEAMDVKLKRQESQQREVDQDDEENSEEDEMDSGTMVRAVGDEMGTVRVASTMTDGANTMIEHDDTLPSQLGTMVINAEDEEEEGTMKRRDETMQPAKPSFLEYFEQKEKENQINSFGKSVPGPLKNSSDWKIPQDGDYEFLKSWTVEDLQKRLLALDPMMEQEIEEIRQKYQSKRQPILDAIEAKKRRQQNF

The target in assay [6] is T6, CDK5/p25 (Homo sapiens, UniProt Q00535).
T6 construct: purchased Carna Biosciences
T6 sequence (Q00535 whole entry): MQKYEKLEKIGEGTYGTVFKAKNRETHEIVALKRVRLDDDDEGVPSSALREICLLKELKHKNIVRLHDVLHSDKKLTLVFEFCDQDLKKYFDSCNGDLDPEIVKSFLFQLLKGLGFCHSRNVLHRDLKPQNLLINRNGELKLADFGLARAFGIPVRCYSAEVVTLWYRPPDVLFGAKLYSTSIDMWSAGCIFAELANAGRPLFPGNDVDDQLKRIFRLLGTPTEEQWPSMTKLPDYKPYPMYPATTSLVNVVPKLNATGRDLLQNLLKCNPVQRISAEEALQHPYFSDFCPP
T6 sequence (Q15078 99-307 partner limits assumed): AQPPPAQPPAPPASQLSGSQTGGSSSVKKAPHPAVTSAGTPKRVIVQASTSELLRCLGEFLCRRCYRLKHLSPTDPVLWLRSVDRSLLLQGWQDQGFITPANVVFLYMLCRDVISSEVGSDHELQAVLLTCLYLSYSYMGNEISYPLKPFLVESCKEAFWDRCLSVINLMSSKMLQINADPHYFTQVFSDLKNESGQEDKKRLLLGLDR

Assay [7] addresses T7, MARK2 (Homo sapiens, UniProt Q7KZI7).
T7 construct: purchased Carna Biosciences

Assay [8] concerns the target T8, CK1ε (Homo sapiens, UniProt P49674).
T8 construct: purchased Carna Biosciences

The target of assay [9] is T9, CDK7/CycH/MAT1 (Homo sapiens, UniProt P50613).
T9 construct: purchased Carna Biosciences
T9 sequence (P50613 whole entry): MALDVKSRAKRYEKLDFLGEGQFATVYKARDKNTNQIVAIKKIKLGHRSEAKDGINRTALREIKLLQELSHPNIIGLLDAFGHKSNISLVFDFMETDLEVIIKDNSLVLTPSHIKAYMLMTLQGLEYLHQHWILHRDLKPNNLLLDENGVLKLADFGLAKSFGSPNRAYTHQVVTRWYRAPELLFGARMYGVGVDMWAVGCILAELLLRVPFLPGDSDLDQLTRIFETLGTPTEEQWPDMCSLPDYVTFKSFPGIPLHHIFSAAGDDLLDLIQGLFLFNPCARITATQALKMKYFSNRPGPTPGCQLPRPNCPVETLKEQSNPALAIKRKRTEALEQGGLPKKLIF
T9 sequence (P51946 whole entry partner): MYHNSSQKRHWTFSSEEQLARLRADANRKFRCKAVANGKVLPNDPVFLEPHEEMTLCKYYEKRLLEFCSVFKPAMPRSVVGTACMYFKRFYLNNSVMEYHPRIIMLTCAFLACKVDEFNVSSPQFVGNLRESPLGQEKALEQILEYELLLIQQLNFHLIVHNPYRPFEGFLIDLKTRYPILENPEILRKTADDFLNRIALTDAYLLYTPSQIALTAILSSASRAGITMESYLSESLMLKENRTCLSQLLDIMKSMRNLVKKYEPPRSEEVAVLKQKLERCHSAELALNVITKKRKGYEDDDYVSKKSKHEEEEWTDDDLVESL
T9 sequence (P51948 whole entry partner): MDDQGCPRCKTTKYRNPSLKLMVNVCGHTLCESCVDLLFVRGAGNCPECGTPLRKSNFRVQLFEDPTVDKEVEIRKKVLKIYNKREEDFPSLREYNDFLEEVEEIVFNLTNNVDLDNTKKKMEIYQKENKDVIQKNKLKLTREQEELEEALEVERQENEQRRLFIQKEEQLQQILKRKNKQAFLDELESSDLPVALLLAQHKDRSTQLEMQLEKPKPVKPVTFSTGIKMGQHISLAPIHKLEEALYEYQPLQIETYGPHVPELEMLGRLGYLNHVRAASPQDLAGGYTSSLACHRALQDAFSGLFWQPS

For assay [10], the target named is T10, AXL (Homo sapiens, UniProt P30530).
T10 construct: purchased Carna Biosciences
T10 sequence (P30530 26-894): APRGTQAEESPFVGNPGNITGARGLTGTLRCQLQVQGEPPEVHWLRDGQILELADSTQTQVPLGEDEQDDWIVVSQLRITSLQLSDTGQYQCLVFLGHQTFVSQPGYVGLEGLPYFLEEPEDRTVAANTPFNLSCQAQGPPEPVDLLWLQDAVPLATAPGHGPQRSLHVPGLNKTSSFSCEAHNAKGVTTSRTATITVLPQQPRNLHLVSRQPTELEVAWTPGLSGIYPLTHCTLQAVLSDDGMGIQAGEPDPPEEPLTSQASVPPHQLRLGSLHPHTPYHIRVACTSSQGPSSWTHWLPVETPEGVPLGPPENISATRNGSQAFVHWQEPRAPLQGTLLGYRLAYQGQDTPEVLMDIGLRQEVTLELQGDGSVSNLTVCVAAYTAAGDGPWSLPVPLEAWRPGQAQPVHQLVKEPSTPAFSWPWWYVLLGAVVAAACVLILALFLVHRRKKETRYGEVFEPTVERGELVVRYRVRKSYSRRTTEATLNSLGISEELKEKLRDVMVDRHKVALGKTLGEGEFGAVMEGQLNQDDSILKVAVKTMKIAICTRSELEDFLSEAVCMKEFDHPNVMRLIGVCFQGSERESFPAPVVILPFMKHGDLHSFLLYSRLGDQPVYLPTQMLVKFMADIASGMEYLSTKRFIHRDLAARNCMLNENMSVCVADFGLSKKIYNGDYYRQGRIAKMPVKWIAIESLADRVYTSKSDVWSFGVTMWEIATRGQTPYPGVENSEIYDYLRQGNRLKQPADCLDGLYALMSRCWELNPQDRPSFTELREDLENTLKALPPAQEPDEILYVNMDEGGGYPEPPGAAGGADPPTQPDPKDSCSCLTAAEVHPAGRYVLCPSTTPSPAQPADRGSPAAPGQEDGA

Assay [11] concerns the target T11, IRAK1 (Homo sapiens, UniProt P51617).
T11 construct: purchased Carna Biosciences

Assay [12] concerns the target T12, AKT2 (Homo sapiens, UniProt P31751).
T12 construct: purchased Carna Biosciences

Assay [13] deals with T13, JNK1 (Homo sapiens, UniProt P45983).
T13 construct: purchased Carna Biosciences
T13 sequence (P45983 whole entry): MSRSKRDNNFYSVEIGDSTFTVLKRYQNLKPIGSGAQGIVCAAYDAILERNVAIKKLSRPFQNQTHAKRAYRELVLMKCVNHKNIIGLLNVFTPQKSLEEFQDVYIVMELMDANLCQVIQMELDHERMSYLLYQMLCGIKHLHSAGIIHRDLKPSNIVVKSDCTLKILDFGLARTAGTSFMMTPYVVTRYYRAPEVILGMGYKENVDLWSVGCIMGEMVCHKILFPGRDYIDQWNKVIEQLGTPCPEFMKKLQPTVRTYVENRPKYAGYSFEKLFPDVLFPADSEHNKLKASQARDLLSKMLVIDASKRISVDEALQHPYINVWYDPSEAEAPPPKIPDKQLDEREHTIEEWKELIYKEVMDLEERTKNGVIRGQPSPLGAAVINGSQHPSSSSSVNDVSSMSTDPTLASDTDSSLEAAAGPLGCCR

Assay [14] deals with T14, PDK1 (Homo sapiens, UniProt O15530).
T14 construct: purchased Carna Biosciences
T14 sequence (O15530 1-556): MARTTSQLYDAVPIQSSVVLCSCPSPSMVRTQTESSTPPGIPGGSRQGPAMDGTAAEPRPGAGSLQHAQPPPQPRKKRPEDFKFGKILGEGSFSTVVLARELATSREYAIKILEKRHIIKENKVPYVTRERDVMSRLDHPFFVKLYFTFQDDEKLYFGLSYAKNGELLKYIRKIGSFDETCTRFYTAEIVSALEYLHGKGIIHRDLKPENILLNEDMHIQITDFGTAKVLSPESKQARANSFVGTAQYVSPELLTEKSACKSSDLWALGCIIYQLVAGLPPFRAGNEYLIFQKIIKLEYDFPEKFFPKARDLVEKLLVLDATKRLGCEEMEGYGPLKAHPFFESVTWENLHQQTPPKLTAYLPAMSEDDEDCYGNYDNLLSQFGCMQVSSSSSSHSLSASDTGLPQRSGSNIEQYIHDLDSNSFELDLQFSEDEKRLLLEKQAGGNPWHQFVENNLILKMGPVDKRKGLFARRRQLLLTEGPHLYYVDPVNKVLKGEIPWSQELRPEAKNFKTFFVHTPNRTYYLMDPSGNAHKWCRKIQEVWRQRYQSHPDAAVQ

T2 sequence (Q13555 whole entry): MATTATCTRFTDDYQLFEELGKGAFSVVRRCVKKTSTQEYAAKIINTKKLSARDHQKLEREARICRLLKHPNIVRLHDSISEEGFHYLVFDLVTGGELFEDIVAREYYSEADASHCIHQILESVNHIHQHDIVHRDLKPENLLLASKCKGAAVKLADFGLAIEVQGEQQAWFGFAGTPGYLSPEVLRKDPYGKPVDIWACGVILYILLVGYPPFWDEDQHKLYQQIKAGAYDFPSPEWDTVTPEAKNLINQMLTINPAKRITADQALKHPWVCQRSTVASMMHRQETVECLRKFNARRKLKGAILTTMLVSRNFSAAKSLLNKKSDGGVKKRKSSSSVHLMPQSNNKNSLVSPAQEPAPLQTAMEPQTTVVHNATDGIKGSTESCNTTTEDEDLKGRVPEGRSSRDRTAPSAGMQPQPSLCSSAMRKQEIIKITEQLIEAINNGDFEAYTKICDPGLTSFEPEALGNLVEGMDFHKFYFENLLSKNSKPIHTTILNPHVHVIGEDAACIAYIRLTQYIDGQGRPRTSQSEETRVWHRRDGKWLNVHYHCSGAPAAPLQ
T12 sequence (P31751 whole entry): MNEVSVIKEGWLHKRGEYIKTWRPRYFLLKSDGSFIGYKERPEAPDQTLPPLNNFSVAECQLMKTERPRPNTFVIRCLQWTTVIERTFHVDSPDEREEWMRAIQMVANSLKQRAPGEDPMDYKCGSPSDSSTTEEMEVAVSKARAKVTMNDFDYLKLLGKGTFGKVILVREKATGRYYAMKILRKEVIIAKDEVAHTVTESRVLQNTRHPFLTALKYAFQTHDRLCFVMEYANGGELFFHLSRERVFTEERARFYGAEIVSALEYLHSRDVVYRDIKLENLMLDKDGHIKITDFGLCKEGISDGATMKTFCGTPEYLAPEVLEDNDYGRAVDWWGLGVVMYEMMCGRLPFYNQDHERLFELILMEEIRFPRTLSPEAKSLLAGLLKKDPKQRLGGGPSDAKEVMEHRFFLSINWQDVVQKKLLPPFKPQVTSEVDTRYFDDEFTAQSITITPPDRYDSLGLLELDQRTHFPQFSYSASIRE
T8 sequence (P49674 whole entry): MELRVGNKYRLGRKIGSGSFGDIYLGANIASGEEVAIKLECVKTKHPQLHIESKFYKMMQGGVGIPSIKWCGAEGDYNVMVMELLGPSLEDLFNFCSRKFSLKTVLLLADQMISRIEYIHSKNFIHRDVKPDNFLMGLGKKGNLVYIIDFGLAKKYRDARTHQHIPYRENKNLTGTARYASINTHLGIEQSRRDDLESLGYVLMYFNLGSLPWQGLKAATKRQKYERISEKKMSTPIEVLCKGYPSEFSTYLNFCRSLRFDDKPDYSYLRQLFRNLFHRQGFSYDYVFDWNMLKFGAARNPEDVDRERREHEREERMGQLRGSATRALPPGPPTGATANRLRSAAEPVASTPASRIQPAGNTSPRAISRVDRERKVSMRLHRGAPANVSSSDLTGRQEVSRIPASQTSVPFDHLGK
T7 sequence (Q7KZI7 whole entry): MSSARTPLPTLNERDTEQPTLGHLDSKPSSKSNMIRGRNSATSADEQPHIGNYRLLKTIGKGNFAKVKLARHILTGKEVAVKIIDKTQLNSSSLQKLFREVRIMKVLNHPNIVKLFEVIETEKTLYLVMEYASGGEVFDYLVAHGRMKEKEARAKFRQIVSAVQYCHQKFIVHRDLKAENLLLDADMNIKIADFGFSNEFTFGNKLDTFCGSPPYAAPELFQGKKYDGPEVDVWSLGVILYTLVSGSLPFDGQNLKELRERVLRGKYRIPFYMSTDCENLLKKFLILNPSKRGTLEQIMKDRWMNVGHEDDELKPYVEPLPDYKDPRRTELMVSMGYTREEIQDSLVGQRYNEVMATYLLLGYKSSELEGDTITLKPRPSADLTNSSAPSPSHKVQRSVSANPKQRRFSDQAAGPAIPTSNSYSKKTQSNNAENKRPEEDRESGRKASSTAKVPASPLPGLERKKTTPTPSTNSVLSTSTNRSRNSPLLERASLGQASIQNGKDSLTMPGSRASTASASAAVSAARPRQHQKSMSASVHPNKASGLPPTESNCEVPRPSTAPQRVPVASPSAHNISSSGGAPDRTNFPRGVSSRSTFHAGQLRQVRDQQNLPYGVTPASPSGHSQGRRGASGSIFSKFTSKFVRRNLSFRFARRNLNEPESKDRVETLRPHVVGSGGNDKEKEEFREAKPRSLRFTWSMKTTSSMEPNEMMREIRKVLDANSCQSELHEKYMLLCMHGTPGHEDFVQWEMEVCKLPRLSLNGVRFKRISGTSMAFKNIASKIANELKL

Consider `CC#CC(=O)N1CCC[C@H]1c1nc(-c2ccc(C(=O)Nc3ccccn3)cc2)c2c(N)nccn12` [acalabrutinib], for which the “Percentage inhibition of kinase enzyme activity” value (shortened to “Percentage inhibition”) was 7.21% in assay [1]; -1.85% in [2]; -5.77% in assay [3]; -4.76% in assay [4]; 3.91% in assay [5]; -19.05% in assay [6]. The “Percentage inhibition” value is -9.24% in assay [7]; -10.49% in assay [8]; 5.25% in [9]; -0.46% in assay [10]; -7.06% in [11]; -2.69% in [12]. Moreover, the “Percentage inhibition” value is -0.88% in assay [13] and -1.47% in assay [14].
Regarding `COc1ccc(F)cc1C(=O)NCc1ccc(-c2nn([C@@H](C)C(F)(F)F)c(N)c2C(N)=O)cc1` [pirtobrutinib], the “Percentage inhibition” value is 39.97% in assay [1]; -1.71% in [2]; 7.28% in [3]; -3.18% in assay [4]; 10.97% in assay [5]; 4.92% in assay [6]. In addition, the “Percentage inhibition” value in assay [7] is listed as 2.21%; in [8] it was 15.87%; in assay [9] it was -4.77%; in assay [10], -1.48%; in assay [11], -6.46%; in assay [12] it was -4.63%. For the same compound, the results for the “Percentage inhibition” value in assay [13] and in assay [14] were -0.29% and -1.19%, respectively.
Take `C=CC(=O)N1CCC[C@@H](n2nc(-c3ccc(Oc4ccccc4)cc3)c3c(N)ncnc32)C1` [ibrutinib]: the “Percentage inhibition” value in assay [1] is listed as 6.95%; in assay [2], -1.83%; in assay [3], 14.14%; in assay [4], 4.65%; in assay [5], 4.14%; in [6], -5.18%. Further, the “Percentage inhibition” value in assay [7] was 2.67%; in [8], 49.55%; in assay [9], 4.94%; in assay [10], 8.97%; in assay [11], -10.80%; in [12], -3.12%. Besides, the “Percentage inhibition” value is -2.33% in assay [13] and -2.01% in assay [14].
In the case of `O=C(c1ccc(Oc2ccccc2)cc1Cl)c1c[nH]c2ncnc(N[C@@H]3CC[C@@H](CO)OC3)c12` [nemtabrutinib], the “Percentage inhibition” value in assay [1] is 65.10%; in assay [2], 1.06%; in assay [3], 49.89%; in [4] it was 7.11%; in assay [5], 96.55%; in [6], -18.80%. Besides, the “Percentage inhibition” value in assay [7] is -4.16%; in assay [8], 95.45%; in assay [9] it was -12.60%; in assay [10], 84.52%; in assay [11], -0.39%; in assay [12], 4.40%. The “Percentage inhibition” value in assay [13] is recorded as -3.89%; in [14], 2.54%.
On to `C=CC(=O)N1CCC([C@@H]2CCNc3c(C(N)=O)c(-c4ccc(Oc5ccccc5)cc4)nn32)CC1` [zanubrutinib], for which the “Percentage inhibition” value is listed as -0.85% in assay [1] and 0.95% in [4].
